{"source": "patent US11028095B2", "about": "“Spiro-lactam and bis-spiro-lactam NMDA receptor modulators and uses thereof” (Aptinyx Inc., priority 2016, dated 2021)", "key": {"[1]": {"test": "Plasma stability (Rat)", "type": "in vitro ADME", "method": "(§1) Plasma stability of disclosed compounds was investigated. The following table indicates the percent of compound remaining after 60 minutes."}, "[2]": {"biological_target": "T1, NMDAR2D expressing HEK cell membranes (Homo sapiens, UniProt O15399+Q05586)", "T1 construct": "expressed in transfected cells; host or cells: HEK cells (membrane extract)", "T1 sequence (O15399 28-1336, other chains not shown)": "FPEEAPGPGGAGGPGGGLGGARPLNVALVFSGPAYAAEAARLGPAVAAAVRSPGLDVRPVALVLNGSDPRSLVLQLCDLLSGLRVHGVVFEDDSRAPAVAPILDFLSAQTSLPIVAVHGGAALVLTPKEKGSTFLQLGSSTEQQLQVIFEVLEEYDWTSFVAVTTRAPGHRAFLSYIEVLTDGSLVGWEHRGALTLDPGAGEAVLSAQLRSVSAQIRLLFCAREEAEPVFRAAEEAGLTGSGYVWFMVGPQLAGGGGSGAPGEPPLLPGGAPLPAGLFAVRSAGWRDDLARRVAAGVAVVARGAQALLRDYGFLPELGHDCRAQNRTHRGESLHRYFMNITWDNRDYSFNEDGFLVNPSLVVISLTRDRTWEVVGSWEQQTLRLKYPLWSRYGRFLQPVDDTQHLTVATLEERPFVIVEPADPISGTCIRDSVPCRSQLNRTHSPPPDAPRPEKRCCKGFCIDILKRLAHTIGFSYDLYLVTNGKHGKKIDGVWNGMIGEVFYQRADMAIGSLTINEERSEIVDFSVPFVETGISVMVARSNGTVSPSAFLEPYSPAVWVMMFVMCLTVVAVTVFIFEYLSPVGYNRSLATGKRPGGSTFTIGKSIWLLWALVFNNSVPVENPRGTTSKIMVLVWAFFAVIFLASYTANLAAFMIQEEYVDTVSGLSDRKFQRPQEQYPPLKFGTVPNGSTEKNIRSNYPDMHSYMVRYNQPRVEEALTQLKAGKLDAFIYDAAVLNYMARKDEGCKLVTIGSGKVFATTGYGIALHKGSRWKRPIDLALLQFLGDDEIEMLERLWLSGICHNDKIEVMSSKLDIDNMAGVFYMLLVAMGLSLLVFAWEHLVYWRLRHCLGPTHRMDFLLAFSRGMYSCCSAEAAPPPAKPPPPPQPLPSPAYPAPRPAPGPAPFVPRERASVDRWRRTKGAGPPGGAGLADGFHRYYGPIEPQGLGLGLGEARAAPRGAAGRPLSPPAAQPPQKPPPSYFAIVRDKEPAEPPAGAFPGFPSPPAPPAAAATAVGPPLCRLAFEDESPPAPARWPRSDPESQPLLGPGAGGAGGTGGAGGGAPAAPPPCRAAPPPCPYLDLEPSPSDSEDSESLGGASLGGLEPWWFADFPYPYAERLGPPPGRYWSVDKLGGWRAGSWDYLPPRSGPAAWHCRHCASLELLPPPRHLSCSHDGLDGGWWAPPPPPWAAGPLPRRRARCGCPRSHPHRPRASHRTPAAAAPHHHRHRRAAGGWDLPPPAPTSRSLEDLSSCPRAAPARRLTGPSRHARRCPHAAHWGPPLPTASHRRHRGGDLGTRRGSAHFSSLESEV", "test": "NMDAR agonist assay, [3H]MK-801 binding, NMDAR2D", "type": "biochemical", "method": "(§2) (nonequilibrium conditions).\n(§3) The baseline value was determined from the best fit curve of the DPM values modeled using the GraphPad program and the log(agonist) vs. response(three parameters) algorithm was then subtracted from all points in the dataset."}, "[3]": {"biological_target": "T2, NMDAR2C expressing HEK cell membranes (Homo sapiens, UniProt Q05586+Q14957)", "T2 construct": "expressed in transfected cells; host or cells: HEK cells (membrane extract)", "T2 sequence (Q14957 20-1233, other chains not shown)": "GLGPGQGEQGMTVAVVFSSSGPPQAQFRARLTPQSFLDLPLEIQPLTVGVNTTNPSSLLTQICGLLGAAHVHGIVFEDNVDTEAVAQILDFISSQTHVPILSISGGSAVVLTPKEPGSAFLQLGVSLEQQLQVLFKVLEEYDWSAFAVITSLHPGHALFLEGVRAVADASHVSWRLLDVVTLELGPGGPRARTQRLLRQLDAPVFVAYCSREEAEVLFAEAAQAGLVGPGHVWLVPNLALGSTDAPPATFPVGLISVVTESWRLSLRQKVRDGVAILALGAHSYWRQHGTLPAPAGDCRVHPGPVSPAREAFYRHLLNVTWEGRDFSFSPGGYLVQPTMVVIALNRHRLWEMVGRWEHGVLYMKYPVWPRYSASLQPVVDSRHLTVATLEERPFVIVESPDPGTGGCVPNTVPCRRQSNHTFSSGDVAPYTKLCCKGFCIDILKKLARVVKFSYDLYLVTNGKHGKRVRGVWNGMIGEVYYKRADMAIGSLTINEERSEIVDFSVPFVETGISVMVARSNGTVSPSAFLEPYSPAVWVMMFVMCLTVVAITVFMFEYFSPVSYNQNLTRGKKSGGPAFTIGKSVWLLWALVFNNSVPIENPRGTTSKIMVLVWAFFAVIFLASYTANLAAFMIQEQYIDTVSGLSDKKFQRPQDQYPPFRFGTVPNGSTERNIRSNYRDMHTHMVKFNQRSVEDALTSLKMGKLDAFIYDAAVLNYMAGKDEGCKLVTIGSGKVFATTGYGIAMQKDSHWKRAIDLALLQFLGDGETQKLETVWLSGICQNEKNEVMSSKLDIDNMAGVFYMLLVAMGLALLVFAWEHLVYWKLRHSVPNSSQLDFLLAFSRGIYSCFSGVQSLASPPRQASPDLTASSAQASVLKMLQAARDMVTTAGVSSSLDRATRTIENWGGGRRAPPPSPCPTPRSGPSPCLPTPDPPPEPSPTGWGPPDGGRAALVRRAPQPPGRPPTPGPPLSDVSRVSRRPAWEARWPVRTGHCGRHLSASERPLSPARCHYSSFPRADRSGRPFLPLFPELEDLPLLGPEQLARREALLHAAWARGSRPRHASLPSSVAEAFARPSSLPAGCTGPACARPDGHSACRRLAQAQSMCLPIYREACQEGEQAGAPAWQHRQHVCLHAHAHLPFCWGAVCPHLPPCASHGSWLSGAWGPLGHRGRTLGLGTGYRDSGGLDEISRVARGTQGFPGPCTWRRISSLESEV", "test": "NMDAR agonist assay, [3H]MK-801 binding, NMDAR2C", "type": "biochemical", "method": "as §2, §3"}, "[4]": {"test": "Microsomal stability (Human)", "type": "in vitro ADME", "settings": "human microsomes", "method": "(§4) Microsomal stability of disclosed compounds was investigated. The following table indicates the percent of compound remaining after 60 minutes."}, "[5]": {"biological_target": "T3, NMDAR2A expressing HEK cell membranes (Homo sapiens, UniProt Q05586+Q12879)", "T3 construct": "expressed in transfected cells; host or cells: HEK cells (membrane extract)", "T3 sequence (Q12879 23-1464, other chains not shown)": "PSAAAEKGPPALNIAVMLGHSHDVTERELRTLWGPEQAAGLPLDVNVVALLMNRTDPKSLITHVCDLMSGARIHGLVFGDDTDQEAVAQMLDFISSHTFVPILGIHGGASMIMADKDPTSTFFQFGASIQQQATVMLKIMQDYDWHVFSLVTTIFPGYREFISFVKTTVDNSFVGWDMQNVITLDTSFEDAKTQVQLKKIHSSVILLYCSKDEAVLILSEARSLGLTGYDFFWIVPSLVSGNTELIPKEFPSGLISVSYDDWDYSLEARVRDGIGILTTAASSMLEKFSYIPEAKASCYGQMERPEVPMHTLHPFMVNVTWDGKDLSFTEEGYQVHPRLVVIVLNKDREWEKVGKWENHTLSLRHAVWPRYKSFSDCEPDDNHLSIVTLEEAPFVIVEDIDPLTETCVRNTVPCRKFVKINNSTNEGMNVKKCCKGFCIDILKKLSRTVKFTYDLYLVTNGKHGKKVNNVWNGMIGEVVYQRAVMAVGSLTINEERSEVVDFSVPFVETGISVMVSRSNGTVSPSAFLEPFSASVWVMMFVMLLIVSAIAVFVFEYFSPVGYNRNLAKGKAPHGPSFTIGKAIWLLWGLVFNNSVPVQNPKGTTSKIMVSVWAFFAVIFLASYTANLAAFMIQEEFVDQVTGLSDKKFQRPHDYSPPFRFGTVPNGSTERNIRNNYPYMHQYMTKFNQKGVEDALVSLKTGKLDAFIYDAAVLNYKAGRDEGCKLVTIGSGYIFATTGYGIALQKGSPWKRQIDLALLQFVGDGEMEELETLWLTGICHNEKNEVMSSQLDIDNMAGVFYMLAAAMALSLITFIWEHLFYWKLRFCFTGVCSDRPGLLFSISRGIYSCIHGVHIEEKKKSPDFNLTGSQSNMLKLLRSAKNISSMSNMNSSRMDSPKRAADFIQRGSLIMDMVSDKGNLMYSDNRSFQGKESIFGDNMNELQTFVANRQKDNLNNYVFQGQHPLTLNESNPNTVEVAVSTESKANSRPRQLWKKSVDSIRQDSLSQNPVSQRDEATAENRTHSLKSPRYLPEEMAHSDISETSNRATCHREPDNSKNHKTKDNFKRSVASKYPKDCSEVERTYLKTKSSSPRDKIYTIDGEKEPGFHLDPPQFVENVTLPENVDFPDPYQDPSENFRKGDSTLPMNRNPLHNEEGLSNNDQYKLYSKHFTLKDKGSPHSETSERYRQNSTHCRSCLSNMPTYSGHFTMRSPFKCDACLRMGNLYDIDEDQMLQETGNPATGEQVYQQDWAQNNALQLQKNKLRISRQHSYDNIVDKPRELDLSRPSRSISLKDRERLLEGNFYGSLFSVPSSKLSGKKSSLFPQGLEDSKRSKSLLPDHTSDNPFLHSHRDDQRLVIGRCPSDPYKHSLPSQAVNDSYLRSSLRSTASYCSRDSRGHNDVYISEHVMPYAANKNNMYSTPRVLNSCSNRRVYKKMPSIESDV", "test": "NMDAR agonist assay, [3H]MK-801 binding, NMDAR2A", "type": "biochemical", "method": "as §2, §3"}, "[6]": {"test": "Oral pharmacokinetics (plasma, brain, CSF)", "type": "in vivo", "settings": "Sprague Dawley rats, per os, 10 mg/kg", "method": "In another experiment, Sprague Dawley rats were dosed per os using a normal saline formulation containing 10 mg/kg of the compounds identified in the table below. Plasma, brain, and CSF samples were analyzed at various time points over a 24 hour period. The table below summarizes the results of the oral pharmacokinetics."}, "[7]": {"test": "Microsomal stability (Rat)", "type": "in vitro ADME", "settings": "rat microsomes", "method": "as §4"}, "[8]": {"tested_on": "Sciatic nerve chronic constriction nerve injury", "test": "Bennett nerve injury assay (mechanical analgesia, paw withdrawal threshold)", "type": "in vivo, Sprague Dawley rats", "method": "The Bennett model of mechanical analgesia is used to assess the analgesic effects of compounds as measured by paw withdrawal threshold. Bennett G J, Xie Y K, “A peripheral mononeuropathy in rat that produces disorders of pain sensation like those seen in man,” Pain 33:87-107, 1988. […] Vehicle animals receive the surgery and then receive vehicle rather than test compound. Animals were tested 1 hr, 24 h and 1 wk post-test compound or vehicle administration.\nMale 2-3 month old Sprague Dawley rats were used. Harlan was the supplier for all studies. Rats were housed in Lucite cages with aspen wood chip bedding, maintained on a 12:12 light:dark cycle (lights on at 5 AM), and given ad libitum access to Purina lab chow (USA) and tap water throughout the study.\nRats were anesthetized using inhaled isoflurane (2.5%). Sciatic nerve chronic constriction nerve injury surgery was performed as previously described (Bennett and Xie, 1988). An incision (˜1.5 cm in length) was made with a scalpel blade dorsally through skin on the right hind limb, parallel and posterior to femur. Using a small pointed hemostat, the biceps femoris and gluteus superficialis muscles were separated. Using curved blunt forceps, the common sciatic nerve was isolated and exposed. For the mechanical analgesia studies, the whole sciatic nerve was ligated. Using hemostats/forceps and chromic gut (5-0), the nerve was loosely ligated with a square knot; 3 ligatures, 1 mm apart were placed on the nerve. […] Testing occurred approximately 2 weeks post-surgery.\nDuring testing, rats were acclimated to the surface of a suspended wire mesh grid (1 cm×1 cm, with the wire being 0.3 cm in diameter) for 15-20 min Starting from the smallest, each Von Frey filament was pressed perpendicularly to the plantar surface of the affected (ipsilateral) hind paw until slightly bent and then held for 6 second. If an obvious hind paw withdrawal or a flinching behavior immediately after the withdrawal of the filament was not observed, the next larger filament was used in the same manner. In case of a response, a lower filament was used. This was repeated until six responses were collected.\nFor all studies, animals were baselined prior to study start to test for allodynia (defined as a paw withdrawal threshold under 5). A subset of animals was tested with gabapentin (150 mg/kg, PO) to ensure at least 50% analgesia. Once it was confirmed animals were ready for study initiation, animals were balanced across groups. All study investigators were blind to treatment conditions. Animals were dosed with 0.1, 1 or 10 mg/kg of test compound via oral gavage (PO), control sets of animals were dosed with gabapentin (150 mg/kg, PO) or vehicle (0.5% Na-CMC in 0.9% sterile saline, PO). Testing occurred 1 h post-dosing with animals retested 24 hrs and 1 week post-dosing. The percent analgesia calculations for each animal were made using the following equation: % analgesia=[(log(x)−y)/((log (z)−y)]*100, where x=the paw withdrawal threshold for the drug-treated animal in grams, y=the average of the log(x) values for the vehicle treated group, and z=the paw withdrawal threshold for naïve animals in grams (historical value of 15 used). The results for Compound AD, where the percentage of analgesia is measured at 1 hour, 24 hours, and 1 week after compound administration are as follows: for 0.1 mg/kg dose: 37.8% at 1 h, 29.7% at 24 h, and 63.1% at 1 wk; for 1 mg/kg dose: 48.8% at 1 h, 20.6% at 24 h, and 19.8% at 1 wk; and for 10 mg/kg dose: 70.3% at 1 h, 38.8% at 24 h, and 11.3% at 1 wk."}, "[9]": {"test": "Plasma stability (Human)", "type": "in vitro ADME", "method": "as §1"}}, "data": [{"smiles": "CC(C)CN1[C@@]2(CC[C@@]13CNC3=O)CNC2=O", "note": "[Compound AD, 5-isobutyl-2,5,8-triazadispiro[3.1.36.24]undecane-1,7-dione]", "values": [{"measurement": "Plasma (Rat): percent of compound remaining after 60 minutes", "setting": "[1]", "value": 88, "unit": "%"}, {"measurement": "EC50", "setting": "[2]; NMDAR2D: log EC50, 50 μM glutamate, [3H]MK-801 binding", "value": "> 100", "unit": "nM"}, {"measurement": "Emax", "setting": "[2]; read-out: NMDAR2D: % maximal [3H]MK-801 binding relative to 1 mM glycine", "value": 0, "unit": "%"}, {"measurement": "EC50", "setting": "[3]; NMDAR2C: log EC50, 50 μM glutamate, [3H]MK-801 binding", "value": "< 1", "unit": "nM"}, {"measurement": "Emax", "setting": "[3]; read-out: NMDAR2C: % maximal [3H]MK-801 binding relative to 1 mM glycine", "value": "< 100", "unit": "%"}, {"measurement": "Microsomal (Human): percent of compound remaining after 60 minutes", "setting": "[4]", "value": 100, "unit": "%"}, {"measurement": "EC50", "setting": "[5]; NMDAR2A: log EC50, 50 μM glutamate, [3H]MK-801 binding", "value": "< 1", "unit": "nM"}, {"measurement": "Emax", "setting": "[5]; read-out: NMDAR2A: % maximal [3H]MK-801 binding relative to 1 mM glycine, 50 μM glutamate, relative to 1 mM glycine", "value": "< 100", "unit": "%"}, {"measurement": "CSF Cmax", "setting": "[6]; CSF", "value": 1965.2, "unit": "ng/mL"}, {"measurement": "Brain Cmax", "setting": "[6]; brain", "value": 1143.2, "unit": "ng/mL"}, {"measurement": "AUC(0-t)", "setting": "[6]; rat, plasma, po", "value": 19300, "unit": "ng·h/mL"}, {"measurement": "bioavailability", "setting": "[6]; rat, plasma, po", "value": 82, "unit": "%"}, {"measurement": "Tmax", "setting": "[6]; rat, plasma, po, normal saline, read-out: Tmax", "value": 19.8, "unit": "min"}, {"measurement": "Cmax", "setting": "[6]; rat, po, plasma, read-out: Cmax", "value": 8560, "unit": "ng/mL"}, {"measurement": "Microsomal (Rat): percent of compound remaining after 60 minutes", "setting": "[7]", "value": 100, "unit": "%"}, {"measurement": "percentage of analgesia", "setting": "[8]; 0.1 mg/kg PO, 1 wk after administration", "value": 63.1, "unit": "%"}, {"measurement": "percentage of analgesia", "setting": "[8]; 0.1 mg/kg PO, 1 h after administration", "value": 37.8, "unit": "%"}, {"measurement": "percentage of analgesia", "setting": "[8]; 0.1 mg/kg PO, 24 h after administration", "value": 29.7, "unit": "%"}, {"measurement": "percentage of analgesia", "setting": "[8]; 1 mg/kg PO, 1 wk after administration", "value": 19.8, "unit": "%"}, {"measurement": "percentage of analgesia", "setting": "[8]; 1 mg/kg PO, 1 h after administration", "value": 48.8, "unit": "%"}, {"measurement": "percentage of analgesia", "setting": "[8]; 1 mg/kg PO, 24 h after administration", "value": 20.6, "unit": "%"}, {"measurement": "percentage of analgesia", "setting": "[8]; 10 mg/kg PO, 1 wk after administration", "value": 11.3, "unit": "%"}, {"measurement": "percentage of analgesia", "setting": "[8]; 10 mg/kg PO, 1 h after administration", "value": 70.3, "unit": "%"}, {"measurement": "percentage of analgesia", "setting": "[8]; 10 mg/kg PO, 24 h after administration", "value": 38.8, "unit": "%"}, {"measurement": "Plasma (Human): percent of compound remaining after 60 minutes", "setting": "[9]", "value": 83, "unit": "%"}]}]}
